Results as given in patent US4910208A, “Method of inhibiting leukotriene biosynthesis by oral administration of p-aminophenols or derivatives thereof” (E. R. Squibb & Sons, Inc., priority 1988, dated 1990).
Read-outs that look alike come from different tables or passages of the source.

Legend:
[1] = test system: SRS-mediated bronchoconstriction; assay: Standard assay for inhibitors of SRS-mediated bronchoconstriction in sensitized guinea pigs; format: in vivo, guinea pig (male Hartly); conditions: 10 mg/kg, iv less than one minute before OA challenge
[2] = test system: SRS-mediated bronchoconstriction; assay: as above; format: in vivo, guinea pig (male Hartly); conditions: for ED50: Cavia porcellus, po, 1 h; for antiasthmatic activity when administered orally: oral
Method: Guinea pigs sensitized to ovalbumin and challenged intravenously with this antigen in the presence of the cyclooxygenase inhibitor, indomethacin (IM), an antihistamine, methapyriline, and a beta-antagonist, propranolol,undergo a delayed (3-13 minutes) bronchospasm, presumed due to the synthesis and release of SRS (leukotriene C, D, and E). A Buxco respiratory mechanics analyzer is used to evaluate the in vivo efficacy of inhibitors of the lipoxygenase pathway in this model of SRS-mediated bronchoconstriction. This system monitors pulmonary air flow, through use of a whole body plethysomgraph, and transpulmonary pressure, from tracheal and intrapleural catheters. Tidal volume is derived from the flow signal by integration, and airway resistance (R) and dynamic compliance (^C dyn) are continuously computed by the system from the primary flow, volume, and pressure parameters. In addition, the system continuously monitors blood pressure and heart rate.
Male Hartly guinea pigs (200 g) ar sensitized by injecting ovalbumin (OA) (10 mg/kg) (each injection also contains 16 mg Amphojel) ip o days 0 and 2. These animals are normally used on days 10-18 following initial sensitization.
On the test day animals are anesthetized by ip injection of urethane (1.2-1.5 g/kg. The jugular vein and carotid artery are catheterized using intramedic PR50 tubing. The trachea is catheterized using intramedic PE240 tubing. Spontaneous respiration is arrested by injecting succinyl choline (2.0 mg/kg, iv) into the jugular vein, and the animal is artificially respirated at 48 breaths/minute with a volume of 4.0 ml/breath. Intramedic PE200 tubing is inserted through the chest wall into the intrapleural space, and the tracheal (by sidearm attachment) and intrapleural cannulas are attached to a single pressure transducer in order to obtain the transpulmonary pressure. The standard protocol requires an initial injection of indomethacin (meglumine salt) (10 mg/kg, iv). Five minutes later antihistamine (methapyrilene, 2 mg/kg, iv) is given, followed one minute later by propranolol (0.1 mg/kg, iv) to induce leukotriene induced bronchoconstriction with no histamine-induced bronchoconstriction and no beta-agonistic bronchoconstriction. Respiratory parameters are then allowed to stabilize for 5-15 minutes. Drugs are tested for oral activity by giving the compound by gavage to 18 hour fasted animals one hour prior to anesthetization. At restabilization, base lines are recorded by the computer for all parameters. To induce bronchoconstriction, a challenge dose of OA (0.4 mg/kg, iv) is given.
Results are expressed as % of baseline values after antigen challenge for R and ^C dyn, and percent inhibition is calculated by comparing % changes in baseline values between control (vehicle) and drug treated test groups.
Statistical significance is determined using a two tailed, unpaired T-test. Drug effects with p<0.05 will be considered significant.
Test compounds were evaluated for their ability to inhibit SRS-mediated changes in dynamic compliance (^C dyn) and resistance (R) as compared to the medicated (indomethacin-methapyrilenepropranolol) control group.

[3] = 5.0 mg/kg P.O., one hour before i.v. antigen challenge
[4] = 12.5 mg/kg P.O., one hour before i.v. antigen challenge
[5] = 25.0 mg/kg P.O., one hour before i.v. antigen challenge
[6] = 50.0 mg/kg P.O., one hour before i.v. antigen challenge
[7] = P.O., one hour before i.v. antigen challenge, read-out: ED50^Cdyn (dose producing 50% inhibition of SRS-mediated changes in dynamic compliance)
[8] = P.O., one hour before i.v. antigen challenge, read-out: ED50^R (dose producing 50% inhibition of SRS-mediated changes in resistance)
[9] = 3.0 mg/kg P.O., one hour before i.v. antigen challenge
[10] = 6.0 mg/kg P.O., one hour before i.v. antigen challenge
[11] = 9.0 mg/kg P.O., one hour before i.v. antigen challenge

Row | Compound | Dynamic Compliance (Cdyn), % of baseline following antigen challenge (mean ± S.E.) [2, 4] | Dynamic Compliance (Cdyn), Inhibition (%) [2, 4] | Resistance (R), % of baseline following antigen challenge (mean ± S.E.) [2, 4] | Resistance (R), Inhibition (%) [2, 4] | Dynamic Compliance (Cdyn), % of baseline following antigen challenge (mean ± S.E.) [2, 5] | Dynamic Compliance (Cdyn), Inhibition (%) [2, 5] | Resistance (R), % of baseline following antigen challenge (mean ± S.E.) [2, 5] | Resistance (R), Inhibition (%) [2, 5] | Dynamic Compliance (Cdyn), % of baseline following antigen challenge (mean ± S.E.) [2, 6] | Dynamic Compliance (Cdyn), Inhibition (%) [2, 6] | Resistance (R), % of baseline following antigen challenge (mean ± S.E.) [2, 6] | Resistance (R), Inhibition (%) [2, 6] | ED50 [2, 7] | ED50 [2, 8] | antiasthmatic activity when administered orally [2] | further results
1 | CCCc1c(OCC(O)COc2ccc3c(=O)cc(C(=O)O)oc3c2CCC)ccc(C(C)=O)c1O (stereo not shown) [FPL-55712] |  |  |  |  |  |  |  |  |  |  |  |  |  |  |  | inhibition of bronchoconstriction as measured by effects on R and Cdyn [1]: 100%
2 | COc1ccc2cc(Nc3ccc(O)cc3)ccc2c1 [Example 2, 4-[(6-Methoxy-2-naphthyl)amino]phenol] | 44 ± 5 % of Baseline | 33% | 231 ± 39 % of Baseline | 57% | 62 ± 7 % of Baseline | 52% | 194 ± 42 % of Baseline | 69% | 66 ± 4 % of Baseline | 57% | 149 ± 11 % of Baseline | 84% | 23.8 mg/kg | 6 mg/kg | exhibit antiasthmatic activity | Dynamic Compliance (Cdyn), % of baseline following antigen challenge (mean ± S.E.) [2, 3]: 23 ± 7 % of Baseline; Dynamic Compliance (Cdyn), Inhibition (%) [2, 3]: 3%; Resistance (R), % of baseline following antigen challenge (mean ± S.E.) [2, 3]: 335 ± 74 % of Baseline; Resistance (R), Inhibition (%) [2, 3]: 23%; oral activity ([2]; P.O., one hour before antigen challenge): orally active; ED50^Cdyn (dose producing 50% inhibition of SRS-mediated changes in dynamic compliance) ([2]; P.O., one hour before i.v. antigen challenge): 23.8(14.1-51.7) mg/kg
3 | COc1ccc(Nc2ccc(O)cc2)c(CO)c1 [SQ 30,624, 2-[(4-Hydroxyphenyl)amino]-5-methoxybenzenemethanol, reference compound] |  |  |  |  |  |  |  |  | 4 ± 3 % of Baseline | 0% | 386 ± 64 % of Baseline | 15% |  |  | did not have antiasthmatic activity | oral activity ([2]; dose of 50 mg/kg P.O.): orally inactive
4 | COc1ccc2cc(N(C)c3ccc(O)cc3)ccc2c1 [Example 17] | 64 ± 7 % of Baseline | 56% | 136 ± 10 % of Baseline | 88% | 57 ± 10 % of Baseline | 47% | 149 ± 23 % of Baseline | 82% |  |  |  |  | 6 to 9 mg/kg | 6 to 9 mg/kg | exhibit antiasthmatic activity | Dynamic Compliance (Cdyn), % of baseline following antigen challenge (mean ± S.E.) [2, 9]: 19 ± 11 % of Baseline; Dynamic Compliance (Cdyn), Inhibition (%) [2, 9]: 0%; Resistance (R), % of baseline following antigen challenge (mean ± S.E.) [2, 9]: 467 ± 134 % of Baseline; Resistance (R), Inhibition (%) [2, 9]: 0%; Dynamic Compliance (Cdyn), % of baseline following antigen challenge (mean ± S.E.) [2, 10]: 31 ± 20 % of Baseline; Dynamic Compliance (Cdyn), Inhibition (%) [2, 10]: 15%; Resistance (R), % of baseline following antigen challenge (mean ± S.E.) [2, 10]: 374 ± 132 % of Baseline; Resistance (R), Inhibition (%) [2, 10]: 1%; Dynamic Compliance (Cdyn), % of baseline following antigen challenge (mean ± S.E.) [2, 11]: 64 ± 8 % of Baseline; Dynamic Compliance (Cdyn), Inhibition (%) [2, 11]: 56%; Resistance (R), % of baseline following antigen challenge (mean ± S.E.) [2, 11]: 141 ± 28 % of Baseline; Resistance (R), Inhibition (%) [2, 11]: 85%; inhibition of antigen-induced bronchoconstriction ([2]; PO one hour before antigen challenge): significantly inhibited
